Literature values as cited in patent US20260092079A1, “MANUFACTURE METHOD FOR AQUEOUS FORMULATION OF MANGANESE-CONTAINING COORDINATION COMPLEX, FORMULATION, AND METHOD OF TREATMENT” (GALERA LABS, LLC, priority 2019, published 2026).

How the values were obtained:
[1] = system: experimental model of colitis; details: rats
[2] = system: lethal total body irradiation; details: adult mice
[3] = system: collagen-induced arthritis; details: rat
[4] = system: radiation-induced oral mucositis; details: hamster, acute radiation-induced oral mucositis
inflammation = details: rat model
[5] = system: VEGFr inhibitor-induced pulmonary disease; details: rat model
oral mucositis = details: head-and-neck cancer patients undergoing chemoradiation therapy

Row | SMILES | Injury to the colon [1] | Radiation damage [2] | Joint disease [3] | Radiation damage [4] | Inflammation (inflammation) | VEGFr inhibitor-induced pulmonary disease [5] | Oral mucositis (oral mucositis)
1 | [Cl-].[Cl-].[Mn+2].c1cc2nc(c1)CN[C@@H]1CCCC[C@H]1NCCN[C@@H]1CCCC[C@H]1NC2 [GC4403] | very significantly reduce the injury to the colon | attenuate the radiation damage | prevent joint disease | attenuate the radiation damage | inhibit inflammation | – | –
2 | [Cl][Mn][Cl].c1cc2nc(c1)CN[C@H]1CCCC[C@@H]1NCCN[C@H]1CCCC[C@@H]1NC2 [GC4419] | – | – | – | – | – | attenuate VEGFr inhibitor-induced pulmonary disease | reduce oral mucositis
